Experimental data: publication PMC5363247 (Angewandte Chemie (International Ed. in English), 2017)

Tests used:
[1] = biological target: T1, factor Xa (Homo sapiens, UniProt P00742); assay: factor Xa enzyme activity; type: biochemical; conditions: initial rates, Michaelis-Menten fit
[2] = biological target: T1, factor Xa; assay: fragment ligation assay, detection via biochemical assay; conditions: read-out: inhibition of factor Xa

T1 sequence (P00742 235-488 limits assumed): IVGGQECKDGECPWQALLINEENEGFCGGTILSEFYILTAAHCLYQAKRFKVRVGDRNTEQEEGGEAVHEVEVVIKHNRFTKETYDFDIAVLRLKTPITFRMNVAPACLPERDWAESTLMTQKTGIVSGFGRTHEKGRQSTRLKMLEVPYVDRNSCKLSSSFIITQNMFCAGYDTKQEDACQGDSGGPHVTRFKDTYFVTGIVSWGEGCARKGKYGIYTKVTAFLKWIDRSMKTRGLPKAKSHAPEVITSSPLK
T1 sequence (P00742 41-179 partner limits assumed): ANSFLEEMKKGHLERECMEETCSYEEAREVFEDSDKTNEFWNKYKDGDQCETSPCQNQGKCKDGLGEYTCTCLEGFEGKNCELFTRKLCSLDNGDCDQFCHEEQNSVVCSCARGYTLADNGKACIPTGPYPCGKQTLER

Compound	K M of fluorogenic substrate [1] [µM]	inhibition at 285 µM [2] [%]
7‐(N‐Boc‐leucinyl‐glycinyl‐arginyl)‐7‐amino‐4‐methylcoumarin	76	–
N=C(N)c1ccc(CN)cc1 [compound 14, 4‐Aminomethylbenzamidine]	–	20
